Data from US6339045B1, “N-(unsubstituted or substituted)-4-substituted-6-(unsubstituted or substituted)phenoxy-2-pyridinecarboxamides or thiocarboxamides, processes for producing the same, and herbicides” (Kureha Kagaku Kogyo Kabushiki Kaisha, priority 1995, dated 2002).

How the values were obtained:
Test in all cases: Herbicidal effect by foliage and soil treatment
Assay type in all cases: in vivo
Details in all cases: 10 g ai/10a, evaluated after 14 days
[1] = tested on: black nightshade (Solanum nigrum)
How it was run: (§1)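 Potted seedlings at cotyledon-to-bifoliate stage were sprayed with compound in Tween 20/water at a predetermined rate and grown in a greenhouse at 19 to 25° C. Growth was rated against untreated plants after 14 days.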

[2] = tested on: cleavers (Galium aparine)
How it was run: as §1

[3] = tested on: common blackjack (Bidens pilosa)
How it was run: as §1

[4] = tested on: common chickweed (Stellaria media)
How it was run: as §1

[5] = tested on: field bindweed (Convolvulus arvensis)
How it was run: as §1

[6] = tested on: ivyleafspeedwell (Veronica hederaefolia)
How it was run: as §1

[7] = tested on: kediock (Sinapis arvensis)
How it was run: as §1

[8] = tested on: redroot pigweed (Amaranthus retroflexus)
How it was run: as §1

[9] = tested on: sicklepod (Cassia obtusifolia)
How it was run: as §1

[10] = tested on: velvetleaf (Abutilon theophrasti)
How it was run: as §1

[11] = tested on: wild chamomile (Matricaria chamomilla)
How it was run: as §1

Which results are given for `COCCNC(=O)c1cc(OC)cc(Oc2cccc(C(F)(F)F)c2)n1` [Compound I-61]?
herbicidal activity rating, SN (Solanum nigrum) [1]: 5 (percentage of weeds killed was not less than 80%); herbicidal activity rating, GA (Galium aparine) [2]: 5 (percentage of weeds killed was not less than 80%); herbicidal activity rating, BP (Bidens pilosa) [3]: 2 (percentage of weeds killed was not less than 20% and less than 40%); herbicidal activity rating, SM (Stellaria media) [4]: 5 (percentage of weeds killed was not less than 80%); herbicidal activity rating, CA (Convolvulus arvensis) [5]: 3 (percentage of weeds killed was not less than 40% and less than 60%); herbicidal activity rating, VH (Veronica hederaefolia) [6]: 5 (percentage of weeds killed was not less than 80%); herbicidal activity rating, SA (Sinapis arvensis) [7]: 5 (percentage of weeds killed was not less than 80%); herbicidal activity rating, AR (Amaranthus retroflexus) [8]: 5 (percentage of weeds killed was not less than 80%); herbicidal activity rating, CO (Cassia obtusifolia) [9]: 5 (percentage of weeds killed was not less than 80%); herbicidal activity rating, AT (Abutilon theophrasti) [10]: 4 (percentage of weeds killed was not less than 60% and less than 80%); herbicidal activity rating, MC (Matricaria chamomilla) [11]: 5 (percentage of weeds killed was not less than 80%)

How did the “herbicidal activity rating, SN (Solanum nigrum)” value (“herbicidal activity rating, SN” below) [1] turn out when `COc1cc(Oc2cccc(C(F)(F)F)c2)nc(C(=O)NCCSC)c1` [Compound I-62] was run?
The value was 5 (percentage of weeds killed was not less than 80%).

And the “herbicidal activity rating, GA (Galium aparine)” value (from here on “herbicidal activity rating, GA”) [2]?
The value was 5 (percentage of weeds killed was not less than 80%).

What about the “herbicidal activity rating, BP (Bidens pilosa)” value (shortened to “herbicidal activity rating, BP”) [3] of the same molecule?
The value was 4 (percentage of weeds killed was not less than 60% and less than 80%).

And the “herbicidal activity rating, SM (Stellaria media)” value (shortened to “herbicidal activity rating, SM”) [4]?
The value was 5 (percentage of weeds killed was not less than 80%).

And the “herbicidal activity rating, CA (Convolvulus arvensis)” value (“herbicidal activity rating, CA” for short) [5]?
Its value is 4 (percentage of weeds killed was not less than 60% and less than 80%).

And the “herbicidal activity rating, VH (Veronica hederaefolia)” value (“herbicidal activity rating, VH” for short) [6]?
The value was 5 (percentage of weeds killed was not less than 80%).

What about the “herbicidal activity rating, SA (Sinapis arvensis)” value (from here on “herbicidal activity rating, SA”) [7] of the same molecule?
The value was 5 (percentage of weeds killed was not less than 80%).

And the “herbicidal activity rating, AR (Amaranthus retroflexus)” value (“herbicidal activity rating, AR” for short) [8]?
Its value is 5 (percentage of weeds killed was not less than 80%).

What about the “herbicidal activity rating, CO (Cassia obtusifolia)” value (shortened to “herbicidal activity rating, CO”) [9] of the same molecule?
Its value is 5 (percentage of weeds killed was not less than 80%).

What about the “herbicidal activity rating, AT (Abutilon theophrasti)” value [10] of the same molecule?
Its value is 3 (percentage of weeds killed was not less than 40% and less than 60%).

And the “herbicidal activity rating, MC (Matricaria chamomilla)” value (“herbicidal activity rating, MC” below) [11]?
The value was 4 (percentage of weeds killed was not less than 60% and less than 80%).

Which results are given for `COc1cc(Oc2cccc(C(F)(F)F)c2)nc(C(=O)NCCS(C)(=O)=O)c1` [Compound I-63]?
herbicidal activity rating, SN (Solanum nigrum) [1]: 5 (percentage of weeds killed was not less than 80%); herbicidal activity rating, GA (Galium aparine) [2]: 5 (percentage of weeds killed was not less than 80%); herbicidal activity rating, BP (Bidens pilosa) [3]: 4 (percentage of weeds killed was not less than 60% and less than 80%); herbicidal activity rating, SM (Stellaria media) [4]: 5 (percentage of weeds killed was not less than 80%); herbicidal activity rating, CA (Convolvulus arvensis) [5]: 5 (percentage of weeds killed was not less than 80%); herbicidal activity rating, VH (Veronica hederaefolia) [6]: 5 (percentage of weeds killed was not less than 80%); herbicidal activity rating, SA (Sinapis arvensis) [7]: 5 (percentage of weeds killed was not less than 80%); herbicidal activity rating, AR (Amaranthus retroflexus) [8]: 5 (percentage of weeds killed was not less than 80%); herbicidal activity rating, CO (Cassia obtusifolia) [9]: 5 (percentage of weeds killed was not less than 80%); herbicidal activity rating, AT (Abutilon theophrasti) [10]: 4 (percentage of weeds killed was not less than 60% and less than 80%); herbicidal activity rating, MC (Matricaria chamomilla) [11]: 4 (percentage of weeds killed was not less than 60% and less than 80%)

`CCSCCNC(=O)c1cc(OC)cc(Oc2cccc(C(F)(F)F)c2)n1` [Compound I-67, N-{2-(ethylmercapto)ethyl}-4-methoxy-6-{3-(trifluoromethyl)phenoxy}-2-pyridine carboxamide] was tested. Which “herbicidal activity rating, SN” value [1] did it give?
The value was 5 (percentage of weeds killed was not less than 80%).

What about the “herbicidal activity rating, GA” value [2] of the same molecule?
Its value is 5 (percentage of weeds killed was not less than 80%).

And the “herbicidal activity rating, BP” value [3]?
The value was 3 (percentage of weeds killed was not less than 40% and less than 60%).

And the “herbicidal activity rating, SM” value [4]?
The value was 4 (percentage of weeds killed was not less than 60% and less than 80%).

What about the “herbicidal activity rating, CA” value [5] of the same molecule?
The value was 5 (percentage of weeds killed was not less than 80%).

And the “herbicidal activity rating, VH” value [6]?
Its value is 5 (percentage of weeds killed was not less than 80%).

What about the “herbicidal activity rating, SA” value [7] of the same molecule?
Its value is 5 (percentage of weeds killed was not less than 80%).

What about the “herbicidal activity rating, AR” value [8] of the same molecule?
The value was 5 (percentage of weeds killed was not less than 80%).

What about the “herbicidal activity rating, CO” value [9] of the same molecule?
Its value is 5 (percentage of weeds killed was not less than 80%).

What about the “herbicidal activity rating, AT (Abutilon theophrasti)” value [10] of the same molecule?
The value was 4 (percentage of weeds killed was not less than 60% and less than 80%).

What about the “herbicidal activity rating, MC” value [11] of the same molecule?
Its value is 3 (percentage of weeds killed was not less than 40% and less than 60%).

For `COc1cc(Oc2cccc(C(F)(F)F)c2)nc(C(=O)NCCC#N)c1` [Compound I-71], which “herbicidal activity rating, SN” value [1] is on record?
Its value is 5 (percentage of weeds killed was not less than 80%).

And the “herbicidal activity rating, GA” value [2]?
Its value is 5 (percentage of weeds killed was not less than 80%).

What about the “herbicidal activity rating, BP” value [3] of the same molecule?
Its value is 5 (percentage of weeds killed was not less than 80%).

And the “herbicidal activity rating, SM” value [4]?
The value was 5 (percentage of weeds killed was not less than 80%).

What about the “herbicidal activity rating, CA” value [5] of the same molecule?
The value was 5 (percentage of weeds killed was not less than 80%).

What about the “herbicidal activity rating, VH” value [6] of the same molecule?
The value was 5 (percentage of weeds killed was not less than 80%).

What about the “herbicidal activity rating, SA” value [7] of the same molecule?
The value was 5 (percentage of weeds killed was not less than 80%).

What about the “herbicidal activity rating, AR” value [8] of the same molecule?
Its value is 5 (percentage of weeds killed was not less than 80%).

What about the “herbicidal activity rating, CO” value [9] of the same molecule?
Its value is 5 (percentage of weeds killed was not less than 80%).

What about the “herbicidal activity rating, AT (Abutilon theophrasti)” value [10] of the same molecule?
The value was 4 (percentage of weeds killed was not less than 60% and less than 80%).

What about the “herbicidal activity rating, MC” value [11] of the same molecule?
Its value is 4 (percentage of weeds killed was not less than 60% and less than 80%).

For `COc1cc(Oc2cccc(C(F)(F)F)c2)nc(C(=O)NCC(C)C)c1` [Compound I-72], which “herbicidal activity rating, SN” value [1] is on record?
Its value is 5 (percentage of weeds killed was not less than 80%).

What about the “herbicidal activity rating, GA” value [2] of the same molecule?
Its value is 5 (percentage of weeds killed was not less than 80%).

What about the “herbicidal activity rating, BP” value [3] of the same molecule?
The value was 5 (percentage of weeds killed was not less than 80%).

And the “herbicidal activity rating, SM” value [4]?
The value was 5 (percentage of weeds killed was not less than 80%).

What about the “herbicidal activity rating, CA” value [5] of the same molecule?
Its value is 5 (percentage of weeds killed was not less than 80%).

What about the “herbicidal activity rating, VH” value [6] of the same molecule?
The value was 5 (percentage of weeds killed was not less than 80%).

And the “herbicidal activity rating, SA” value [7]?
The value was 5 (percentage of weeds killed was not less than 80%).

What about the “herbicidal activity rating, AR” value [8] of the same molecule?
Its value is 5 (percentage of weeds killed was not less than 80%).

And the “herbicidal activity rating, CO” value [9]?
The value was 5 (percentage of weeds killed was not less than 80%).

What about the “herbicidal activity rating, AT (Abutilon theophrasti)” value [10] of the same molecule?
The value was 4 (percentage of weeds killed was not less than 60% and less than 80%).

And the “herbicidal activity rating, MC” value [11]?
Its value is 5 (percentage of weeds killed was not less than 80%).
